The text below walks through data of US8912216B2, “Hetaryl-[1,8]naphthyridine derivatives” (Merck Patent GmbH, priority 2010, dated 2014).

pIC50: −log10 of the molar value. Like-named read-outs stand apart in the source and are kept apart here.

Assay [1] deals with T1, GST-ALK5 (Homo sapiens, UniProt P36897).
T1 sequence (P36897 34-503): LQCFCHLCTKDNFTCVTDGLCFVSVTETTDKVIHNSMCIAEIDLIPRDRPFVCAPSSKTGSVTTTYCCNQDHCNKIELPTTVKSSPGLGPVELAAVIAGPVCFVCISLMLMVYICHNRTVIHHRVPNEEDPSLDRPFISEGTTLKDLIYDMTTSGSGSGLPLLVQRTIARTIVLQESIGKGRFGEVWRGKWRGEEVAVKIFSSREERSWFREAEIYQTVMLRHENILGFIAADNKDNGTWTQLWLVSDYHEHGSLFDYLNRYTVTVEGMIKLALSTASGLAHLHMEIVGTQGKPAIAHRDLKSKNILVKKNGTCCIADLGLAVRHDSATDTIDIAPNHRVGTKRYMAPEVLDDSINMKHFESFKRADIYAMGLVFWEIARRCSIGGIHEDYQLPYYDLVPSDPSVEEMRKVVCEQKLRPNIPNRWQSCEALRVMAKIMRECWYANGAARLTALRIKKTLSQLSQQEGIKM
In words: In-vitro (enzyme) kinase assay, 384-well flashplate (Example 36). Particulars: read-out: TβR activity (Example 36). It counts as biochemical. Put shortly: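 Radiometric flashplate assay: 31.2 nM GST-ALK5 phosphorylating 439 nM GST-SMAD2 with 3 mM ATP plus ³³P-ATP, in HEPES/MgCl2/MnCl2/DTT/BSA buffer pH 7.4, 45 min at 30 °C, 5-10 compound concentrations. EDTA stop, filtration and washing, then radioactivity counted; IC50 derived from the curve.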

Assay [2] has as its system TGF-beta-induced phosphorylation of Smad2 and Smad3 in Mv1-Lu cells. In words: Inhibition of Smad2/3 phosphorylation in Mv1Lu cells (Example 35A). In kind it is cell-based, mink Mustela vison. The following applies: Neogale vison, read-out: TβR activity (Example 35A). Put shortly:
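Serum-starved (16-20 h) Mv1-Lu mink lung epithelial cells were pre-incubated 1.5 h with compound dilutions (0.2% DMSO), then stimulated 1 h with 5 ng/ml TGF-beta 1. Phospho-Smad2 (Ser465/467)/Smad3 (Ser423/425) in lysates was measured by ELISA. IC50 came from dose-response fits between stimulated and unstimulated controls.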

The mark [3] stands for this setting: GST-ALK5, GST-SMAD2 substrate, 3 mM ATP, 30° C., 45 min.
Where [4] appears, read: Mv1-Lu cells, TGF-beta 1 5 ng/ml, phospho-Smad2/3 ELISA.

For the compound `Cc1ccn(-c2cc(-c3cncc(Br)c3)c3cccnc3n2)n1` [4-(5-Bromo-pyridin-3-yl)-2-(3-methyl-pyrazol-1-yl)-[1,8]naphthyridine], the pIC50 in assay [1] (Table 2, intermediate, GST-ALK5 flashplate assay) was less than 5.00; in assay [2] (Table 2, intermediate, Smad2/3 phosphorylation in Mv1-Lu cells) it was less than 5.00.
In the case of `Fc1ccc(Cl)cc1-c1cc(-c2cncc(-c3ccc(Cl)nn3)c2)c2cccnc2n1` [compound 107, 2-(5-Chloro-2-fluoro-phenyl)-4-[5-(6-chloro-pyridazin-3-yl)-pyridin-3-yl]-[1,8]naphthyridine], the figures for the pIC50 in assay [1] (setting [3]) and in assay [2] (setting [4]) were 6.00 to 7.00 and 5.00 to 6.00, respectively.
Turning to `Fc1ccccc1-c1cc(-c2cncc(-c3ccc(N4CCNCC4)nc3)n2)c2cccnc2n1` [compound 81, 2-(2-Fluoro-phenyl)-4-[6-(6-piperazin-1-yl-pyridin-3-yl)-pyrazin-2-yl]-[1,8]naphthyridine], the pIC50 in assay [1] (setting [3]) was greater than 7.00; in assay [2] (setting [4]), 6.00 to 7.00.
Turning to `Fc1ccc(Cl)cc1-c1cc(-c2ccc(-c3ccccc3)nc2)c2cccnc2n1` [compound 5599, 2-(5-Chloro-2-fluoro-phenyl)-4-(6-phenyl-pyridin-3-yl)-[1,8]naphthyridine], the pIC50 in assay [1] (setting [3]) and in assay [2] (setting [4]) was less than 5.00 in each case.
Turning to `CC1(C)CCNc2ccc(-c3cncc(-c4cc(-c5cc(Cl)ccc5F)nc5ncccc45)c3)cc21` [compound 146, 2-(5-Chloro-2-fluoro-phenyl)-4-[5-(4,4-dimethyl-1,2,3,4-tetrahydro-quinolin-6-yl)-pyridin-3-yl]-[1,8]naphthyridine], the pIC50 in assay [1] (setting [3]) and in assay [2] (setting [4]) was 6.00 to 7.00 each time.
Take `Fc1ccccc1-c1cc(-c2cncc(-c3nccc(N4CCNCC4)n3)c2)c2cccnc2n1` [compound 71, 2-(2-fluoro-phenyl)-4-[5-(4-piperazin-1-yl-pyrimidin-2-yl)-pyridin-3-yl]-[1,8]naphthyridine]: the pIC50 in assay [1] (setting [3]) is greater than 7.00; in assay [2] (setting [4]), 5.00 to 6.00.
`OCCCn1cc(-c2cncc(-c3cc(-c4cc(F)ccc4F)nc4ncccc34)c2)cn1` [compound 89, 3-(4-{5-[2-(2,5-Difluoro-phenyl)-[1,8]naphthyridin-4-yl]-pyridin-3-yl}-pyrazol-1-yl)-propan-1-ol]: the pIC50 in assay [1] (setting [3]) is greater than 7.00; in assay [2] (setting [4]) it was 6.00 to 7.00.
For the compound `Fc1ccc(Cl)cc1-c1cc(-c2cncc(-c3ccnc(N4CCOCC4)c3F)c2)c2cccnc2n1` [compound 108, 2-(5-Chloro-2-fluoro-phenyl)-4-(3′-fluoro-2′-morpholin-4-yl-[3,4′]bipyridinyl-5-yl)-[1,8]naphthyridine], the pIC50 in assay [1] (setting [3]) and in assay [2] (setting [4]) was 6.00 to 7.00 each time.
With `CN(C)CCNC(=O)c1ccc(-c2cncc(-c3cc(-c4cc(Cl)ccc4F)nc4ncccc34)c2)cn1` [compound 178, 5′-[2-(5-Chloro-2-fluoro-phenyl)-[1,8]naphthyridin-4-yl]-[3,3′]bipyridinyl-6-carboxylic acid (2-dimethylamino-ethyl)-amide], the pIC50 in assay [1] (setting [3]) and in assay [2] (setting [4]) was 6.00 to 7.00 in each case.
As to `Fc1ccc(Cl)cc1-c1cc(-c2cnc3ccccc3c2)c2cccnc2n1` [compound 100, 2-(5-Chloro-2-fluoro-phenyl)-4-quinolin-3-yl-[1,8]naphthyridine], the pIC50 is 5.00 to 6.00 in assay [1] (setting [3]) and less than 5.00 in assay [2] (setting [4]).
Regarding `COCCN1CCC(n2cc(-c3cncc(-c4cc(-c5ccccc5F)nc5ncccc45)c3)cn2)CC1` [compound 52, 2-(2-Fluoro-phenyl)-4-(5-{1-[1-(2-methoxy-ethyl)-piperidin-4-yl]-1H-pyrazol-4-yl}-pyridin-3-yl)-[1,8]naphthyridine], the pIC50 in assay [1] (setting [3]) and in assay [2] (setting [4]) was greater than 7.00 throughout.
As for `CN1CCC(n2cc(-c3cncc(-c4cc(-c5ccccc5F)nc5ncccc45)c3)cn2)C1` (stereo not shown) [compound 59, 2-(2-Fluoro-phenyl)-4-{5-[1-(1-methyl-pyrrolidin-3-yl)-1H-pyrazol-4-yl]-pyridin-3-yl}-[1,8]naphthyridine], the pIC50 in assay [1] (setting [3]) and in assay [2] (setting [4]) was greater than 7.00 each time.
On to `Fc1ccc(Cl)cc1-c1cc(-c2cnccc2-c2ccccc2)c2cccnc2n1` [compound 98, 2-(5-Chloro-2-fluoro-phenyl)-4-(4-phenyl-pyridin-3-yl)-[1,8]naphthyridine], for which the pIC50 in assay [1] (setting [3]) and in assay [2] (setting [4]) was 5.00 to 6.00 throughout.
In the case of `CC1(C)CC(=O)Nc2ccc(-c3cncc(-c4cc(-c5cc(Cl)ccc5F)nc5ncccc45)c3)cc21` [compound 157, 6-{5-[2-(5-Chloro-2-fluoro-phenyl)-[1,8]naphthyridin-4-yl]-pyridin-3-yl}-4,4-dimethyl-3,4-dihydro-1H-quinolin-2-one], the pIC50 in assay [1] (setting [3]) and in assay [2] (setting [4]) was 6.00 to 7.00 throughout.
Regarding `Fc1ccc(Cl)cc1-c1cc(-c2cccc(-c3ccccc3)n2)c2cccnc2n1` [compound 12, 2-(5-Chloro-2-fluoro-phenyl)-4-(6-phenyl-pyridin-2-yl)-[1,8]naphthyridine], the pIC50 in assay [1] (setting [3]) and in assay [2] (setting [4]) was less than 5.00 throughout.
For `Fc1ccc(F)c(-c2cc(-c3cncc(-c4cnn(C5CCNCC5)c4)c3)c3cccnc3n2)c1` [compound 47, 2-(2,5-Difluoro-phenyl)-4-[5-(1-piperidin-4-yl-1H-pyrazol-4-yl)-pyridin-3-yl]-[1,8]naphthyridine], the pIC50 in assay [1] (setting [3]) and in assay [2] (setting [4]) was greater than 7.00 each time.
As to `Cn1cc(-c2cc(-c3cc(-c4cc(Cl)ccc4F)nc4ncccc34)cnc2N)cn1` [compound 31, 5-[2-(5-chloro-2-fluoro-phenyl)-[1,8]naphthyridin-4-yl]-3-(1-methyl-1H-pyrazol-4-yl)-pyridin-2-ylamine], the pIC50 was 5.00 to 6.00 in assay [1] (setting [3]) and less than 5.00 in assay [2] (setting [4]).
For the compound `Nc1cccnc1-c1cncc(-c2cc(-c3cc(Cl)ccc3F)nc3ncccc23)c1` [compound 129, 5′-[2-(5-Chloro-2-fluoro-phenyl)-[1,8]naphthyridin-4-yl]-[2,3′]bipyridinyl-3-ylamine], the pIC50 in assay [1] (setting [3]) and in assay [2] (setting [4]) was less than 5.00 in each case.
`Fc1ccc(F)c(-c2cc(-c3cncc(-c4cccc(OCC5CCNCC5)c4)c3)c3cccnc3n2)c1` [compound 147, 2-(2,5-Difluoro-phenyl)-4-{5-[3-(piperidin-4-ylmethoxy)-phenyl]-pyridin-3-yl}-[1,8]naphthyridine]: the figures for the pIC50 in assay [1] (setting [3]) and in assay [2] (setting [4]) were 6.00 to 7.00 and 5.00 to 6.00, respectively.
For `Fc1ccc(Cl)cc1-c1cc(-c2cncc(-c3cccnc3)c2)c2cccnc2n1` [compound 104, 4-[3,3′]Bipyridinyl-5-yl-2-(5-chloro-2-fluoro-phenyl)-[1,8]naphthyridine], in that order: greater than 7.00 and 6.00 to 7.00.
On to `Fc1ccc(Cl)cc1-c1cc(-c2cncc(-c3ccccn3)c2)c2cccnc2n1` [compound 103, 4-[2,3′]Bipyridinyl-5′-yl-2-(5-chloro-2-fluoro-phenyl)-[1,8]naphthyridine], for which the pIC50 was greater than 7.00 in assay [1] (setting [3]) and 6.00 to 7.00 in assay [2] (setting [4]).
The like results for `CN1CCC(n2cc(-c3cncc(-c4cc(-c5cc(F)ccc5F)nc5ncccc45)n3)cn2)CC1` [compound 62, 2-(2,5-Difluoro-phenyl)-4-{6-[1-(1-methyl-piperidin-4-yl)-1H-pyrazol-4-yl]-pyrazin-2-yl}-[1,8]naphthyridine] were, in that order, greater than 7.00 and greater than 7.00.
The like results for `CN1CCC(n2cc(-c3cncc(-c4cc(-c5ccccc5)nc5ncccc45)c3)cn2)CC1` [compound 63, 4-{5-[1-(1-Methyl-piperidin-4-yl)-1H-pyrazol-4-yl]-pyridin-3-yl}-2-phenyl-[1,8]naphthyridine] were, in that order, greater than 7.00 and 6.00 to 7.00.
